Measurements published in EPA's CvTdb concentration-time database.

Tests used:
Rat [1] = experiment: concentration in adipose after dosing; details: 960 h; dosed: 2,3,7,8-Tetrachlorodibenzo-p-dioxin; 0.0001 mg/kg; oral; Female; Sprague-Dawley
Rat [2] = experiment: concentration in liver after dosing; details: 24 h; dosed: 2,3,7,8-Tetrachlorodibenzo-p-dioxin; 0.0001 mg/kg; oral; Female; Sprague-Dawley
Rat [3] = experiment: concentration in adipose (perirenal) after dosing; details: dosed: 2,3,7,8-Tetrachlorodibenzo-p-dioxin, oral, Female, Sprague-Dawley
Rat [4] = experiment: concentration in adipose after dosing; details: dosed: 2,3,7,8-Tetrachlorodibenzo-p-dioxin, oral, Female, Sprague-Dawley
Rat [5] = experiment: concentration in adipose (perirenal) after dosing; details: 48 h; dosed: 2,3,7,8-Tetrachlorodibenzo-p-dioxin; 0.0001 mg/kg; oral; Female; Sprague-Dawley
Rat [6] = experiment: concentration in adipose after dosing; details: 480 h; dosed: 2,3,7,8-Tetrachlorodibenzo-p-dioxin; 0.00005 mg/kg; oral; Female; Sprague-Dawley
Rat [7] = experiment: concentration in adipose (perirenal) after dosing; details: 2400 h; dosed: 2,3,7,8-Tetrachlorodibenzo-p-dioxin; 0.0001 mg/kg; oral; Female; Sprague-Dawley
Rat [8] = experiment: concentration in liver after dosing; details: 24 h; dosed: 2,3,7,8-Tetrachlorodibenzo-p-dioxin; 0.0001 mg/kg; oral; Female; Sprague-Dawley; remark: listed apart in the source
Rat [9] = experiment: concentration in adipose after dosing; details: 48 h; dosed: 2,3,7,8-Tetrachlorodibenzo-p-dioxin; 0.0001 mg/kg; oral; Female; Sprague-Dawley
Rat [10] = experiment: concentration in adipose (perirenal) after dosing; details: 48 h; dosed: 2,3,7,8-Tetrachlorodibenzo-p-dioxin; 0.00005 mg/kg; oral; Female; Sprague-Dawley
Rat [11] = experiment: concentration in adipose after dosing; details: 48 h; dosed: 2,3,7,8-Tetrachlorodibenzo-p-dioxin; 0.0001 mg/kg; oral; Female; Sprague-Dawley; remark: listed apart in the source
Rat [12] = experiment: concentration in adipose (perirenal) after dosing; details: 960 h; dosed: 2,3,7,8-Tetrachlorodibenzo-p-dioxin; 0.0001 mg/kg; oral; Female; Sprague-Dawley
Rat [13] = experiment: concentration in adipose after dosing; details: 48 h; dosed: 2,3,7,8-Tetrachlorodibenzo-p-dioxin; 0.0001 mg/kg; oral; Female; Sprague-Dawley; remark: listed apart in the source
Rat [14] = experiment: concentration in adipose after dosing; details: 2400 h; dosed: 2,3,7,8-Tetrachlorodibenzo-p-dioxin; 0.0001 mg/kg; oral; Female; Sprague-Dawley
Rat [15] = experiment: concentration in adipose after dosing; details: 960 h; dosed: 2,3,7,8-Tetrachlorodibenzo-p-dioxin; 0.0001 mg/kg; oral; Female; Sprague-Dawley; remark: listed apart in the source
Rat [16] = experiment: concentration in liver after dosing; details: 24 h; dosed: 2,3,7,8-Tetrachlorodibenzo-p-dioxin; 0.00005 mg/kg; oral; Female; Sprague-Dawley
Rat [17] = experiment: concentration in adipose after dosing; details: 480 h; dosed: 2,3,7,8-Tetrachlorodibenzo-p-dioxin; 0.0001 mg/kg; oral; Female; Sprague-Dawley
Rat [18] = experiment: concentration in lung after dosing; details: dosed: 2,3,7,8-Tetrachlorodibenzo-p-dioxin, oral, Female, Sprague-Dawley
Rat [19] = experiment: concentration in adipose (perirenal) after dosing; details: 1680 h; dosed: 2,3,7,8-Tetrachlorodibenzo-p-dioxin; 0.0001 mg/kg; oral; Female; Sprague-Dawley
Rat [20] = experiment: concentration in adipose after dosing; details: 1680 h; dosed: 2,3,7,8-Tetrachlorodibenzo-p-dioxin; 0.0001 mg/kg; oral; Female; Sprague-Dawley
Rat [21] = experiment: concentration in adipose (perirenal) after dosing; details: 48 h; dosed: 2,3,7,8-Tetrachlorodibenzo-p-dioxin; 0.0001 mg/kg; oral; Female; Sprague-Dawley; remark: listed apart in the source
Rat [22] = experiment: concentration in adipose (perirenal) after dosing; details: 2400 h; dosed: 2,3,7,8-Tetrachlorodibenzo-p-dioxin; 0.0001 mg/kg; oral; Female; Sprague-Dawley; remark: listed apart in the source
Rat [23] = experiment: concentration in adipose (perirenal) after dosing; details: 480 h; dosed: 2,3,7,8-Tetrachlorodibenzo-p-dioxin; 0.0001 mg/kg; oral; Female; Sprague-Dawley
Rat [24] = experiment: concentration in adipose (perirenal) after dosing; details: 960 h; dosed: 2,3,7,8-Tetrachlorodibenzo-p-dioxin; 0.0001 mg/kg; oral; Female; Sprague-Dawley; remark: listed apart in the source
Rat [25] = experiment: concentration in adipose (perirenal) after dosing; details: 48 h; dosed: 2,3,7,8-Tetrachlorodibenzo-p-dioxin; 0.0001 mg/kg; oral; Female; Sprague-Dawley; remark: listed apart in the source
Rat [26] = experiment: concentration in adipose (perirenal) after dosing; details: 960 h; dosed: 2,3,7,8-Tetrachlorodibenzo-p-dioxin; 0.0001 mg/kg; oral; Female; Sprague-Dawley; remark: listed apart in the source
Rat [27] = experiment: concentration in adipose (perirenal) after dosing; details: 48 h; dosed: 2,3,7,8-Tetrachlorodibenzo-p-dioxin; 0.0001 mg/kg; oral; Female; Sprague-Dawley; remark: listed apart in the source
Rat [28] = experiment: concentration in adipose (perirenal) after dosing; details: 1680 h; dosed: 2,3,7,8-Tetrachlorodibenzo-p-dioxin; 0.0001 mg/kg; oral; Female; Sprague-Dawley; remark: listed apart in the source
Rat [29] = experiment: concentration in adipose after dosing; details: 480 h; dosed: 2,3,7,8-Tetrachlorodibenzo-p-dioxin; 0.0001 mg/kg; oral; Female; Sprague-Dawley; remark: listed apart in the source
Rat [30] = experiment: concentration in liver after dosing; details: dosed: 2,3,7,8-Tetrachlorodibenzo-p-dioxin, oral, Female, Sprague-Dawley
Rat [31] = experiment: concentration in adipose (perirenal) after dosing; details: 48 h; dosed: 2,3,7,8-Tetrachlorodibenzo-p-dioxin; 0.00005 mg/kg; oral; Female; Sprague-Dawley; remark: listed apart in the source
Rat [32] = experiment: concentration in liver after dosing; details: 24 h; dosed: 2,3,7,8-Tetrachlorodibenzo-p-dioxin; 0.0001 mg/kg; oral; Female; Sprague-Dawley; remark: listed apart in the source
Rat [33] = experiment: concentration in adipose (perirenal) after dosing; details: 48 h; dosed: 2,3,7,8-Tetrachlorodibenzo-p-dioxin; 0.0001 mg/kg; oral; Female; Sprague-Dawley; remark: listed apart in the source
Rat [34] = experiment: concentration in adipose (perirenal) after dosing; details: 480 h; dosed: 2,3,7,8-Tetrachlorodibenzo-p-dioxin; 0.0001 mg/kg; oral; Female; Sprague-Dawley; remark: listed apart in the source
Rat [35] = experiment: concentration in adipose (perirenal) after dosing; details: 480 h; dosed: 2,3,7,8-Tetrachlorodibenzo-p-dioxin; 0.0001 mg/kg; oral; Female; Sprague-Dawley; remark: listed apart in the source
Rat [36] = experiment: concentration in plasma after dosing; details: dosed: 2,3,7,8-Tetrachlorodibenzo-p-dioxin, 0.0001 mg/kg, oral, Female, Sprague-Dawley
Rat [37] = experiment: concentration in adipose after dosing; details: 960 h; dosed: 2,3,7,8-Tetrachlorodibenzo-p-dioxin; 0.00005 mg/kg; oral; Female; Sprague-Dawley
Rat [38] = experiment: concentration in adipose after dosing; details: 960 h; dosed: 2,3,7,8-Tetrachlorodibenzo-p-dioxin; 0.0001 mg/kg; oral; Female; Sprague-Dawley; remark: listed apart in the source
Rat [39] = experiment: concentration in adipose (perirenal) after dosing; details: 1680 h; dosed: 2,3,7,8-Tetrachlorodibenzo-p-dioxin; 0.0001 mg/kg; oral; Female; Sprague-Dawley; remark: listed apart in the source
Rat [40] = experiment: concentration in adipose after dosing; details: 480 h; dosed: 2,3,7,8-Tetrachlorodibenzo-p-dioxin; 0.0001 mg/kg; oral; Female; Sprague-Dawley; remark: listed apart in the source
Rat [41] = experiment: concentration in adipose after dosing; details: 8 h; dosed: 2,3,7,8-Tetrachlorodibenzo-p-dioxin; 0.0001 mg/kg; oral; Female; Sprague-Dawley
Rat [42] = experiment: concentration in adipose after dosing; details: 48 h; dosed: 2,3,7,8-Tetrachlorodibenzo-p-dioxin; 0.0001 mg/kg; oral; Female; Sprague-Dawley; remark: listed apart in the source
Rat [43] = experiment: concentration in adipose after dosing; details: 1680 h; dosed: 2,3,7,8-Tetrachlorodibenzo-p-dioxin; 0.0001 mg/kg; oral; Female; Sprague-Dawley; remark: listed apart in the source
Rat [44] = experiment: concentration in adipose after dosing; details: 1680 h; dosed: 2,3,7,8-Tetrachlorodibenzo-p-dioxin; 0.0001 mg/kg; oral; Female; Sprague-Dawley; remark: listed apart in the source
Rat [45] = experiment: concentration in adipose (perirenal) after dosing; details: 2400 h; dosed: 2,3,7,8-Tetrachlorodibenzo-p-dioxin; 0.0001 mg/kg; oral; Female; Sprague-Dawley; remark: listed apart in the source
Rat [46] = experiment: concentration in liver after dosing; details: 24 h; dosed: 2,3,7,8-Tetrachlorodibenzo-p-dioxin; 0.0001 mg/kg; oral; Female; Sprague-Dawley; remark: listed apart in the source

Clc1cc2c(cc1Cl)Oc1cc(Cl)c(Cl)cc1O2 [2,3,7,8-Tetrachlorodibenzo-p-dioxin]
Details | concentration in adipose [pg/g] | concentration in liver [pg/g]
Rat [1] | 159 | –
Rat [2] | – | 1450
Rat [5] | 260 | –
Rat [6] | 95 | –
Rat [7] | 106 | –
Rat [8] | – | 1200
Rat [9] | 497 | –
Rat [10] | 148 | –
Rat [11] | 374 | –
Rat [12] | 305 | –
Rat [13] | 292 | –
Rat [14] | 186 | –
Rat [15] | 294 | –
Rat [16] | – | 515
Rat [17] | 537 | –
Rat [19] | 212 | –
Rat [20] | 279 | –
Rat [21] | 402 | –
Rat [22] | 271 | –
Rat [23] | 490 | –
Rat [24] | 298 | –
Rat [25] | 407 | –
Rat [26] | 264 | –
Rat [27] | 469 | –
Rat [28] | 143 | –
Rat [29] | 422 | –
Rat [31] | 236 | –
Rat [32] | – | 1300
Rat [33] | 379 | –
Rat [34] | 384 | –
Rat [35] | 483 | –
Rat [37] | 116 | –
Rat [38] | 294 | –
Rat [39] | 213 | –
Rat [40] | 372 | –
Rat [41] | 260 | –
Rat [42] | 397 | –
Rat [43] | 220 | –
Rat [44] | 152 | –
Rat [45] | 218 | –
Rat [46] | – | 1310

Details | concentration in adipose, Rat [3] [pg/g] | concentration in adipose, Rat [4] [pg/g] | concentration in liver, Rat [30] [pg/g] | concentration in lung, Rat [18] [pg/g]
8 h, 0.00005 mg/kg | – | 120 | – | –
8 h, 0.0001 mg/kg | 135 | 218 | – | –
24 h, 0.00005 mg/kg | – | – | 472 | –
24 h, 0.0001 mg/kg | – | – | 1630 | –
48 h, 0.00005 mg/kg | 416 | – | – | –
48 h, 0.0001 mg/kg | 371 | 303 | – | –
480 h, 0.00005 mg/kg | 260 | 110 | 271 | –
480 h, 0.0001 mg/kg | 190 | 428 | 307 | –
960 h, 0.00005 mg/kg | 146 | 93 | 205 | 465
960 h, 0.0001 mg/kg | 172 | 171 | – | –
1680 h, 0.0001 mg/kg | 103 | 134 | 288 | 201
2400 h, 0.00005 mg/kg | – | 93 | – | –
2400 h, 0.0001 mg/kg | 112 | 156 | – | –

Rat [36]
Details | concentration in plasma [ng/mL]
1.5 h | 0.104
48 h | 0.631
144 h | 0.106
240 h | 0.161
360 h | 0.184
